Data taken from paper PMC9011347, “Small-Molecule Inhibitors Targeting Lipolysis in Human Adipocytes” (Journal of the American Chemical Society, 2022).

How the values were obtained:
mouse ATGL T146G = target: T1, mouse ATGL T146G (Mus musculus, UniProt Q8BJ56, T146G); experiment: TAG hydrolase assay, humanized mouse ATGL variants; format: biochemical; details: variant T146G, NG-497 (10 μM) or Atglistatin (10 μM)
T1 construct: host or cells: Expi293 cells, cell lysate
Protocol: (§1) Figure 5 Analysis of chimeric proteins comprising human and mouse ATGL. (a) Schematic view of the minimal active domain of wild-type and chimeric ATGL variants (c1–c9). Nonidentical aa are indicated in blue and red for mouse and human ATGL, respectively. ATGL variants were expressed in Expi293 cells and TAG hydrolase activity was determined in cell lysates in the presence or absence of NG-497 (10 μM) and Atglistatin (10 μM), respectively. Inhibition of ATGL variants by respective inhibitors (tick mark) and lack of inhibition (cross) is indicated at the right edge. The expression of all ATGL variants was confirmed by Western blotting analysis (Figure S6). (b) Dose-dependent inhibition of human ATGL (aa 1–288) and c1 (human aa 1–158 and mouse aa 159–288) by NG-497. (c) Dose-dependent inhibition of mouse ATGL (aa 1–288) and c2 (mouse aa 1–158 and human aa 159–288) by Ai. IC50 values are shown in the insets. Data are presented as relative inhibition of respective DMSO controls and are indicated as mean ± SD. (d) 3D homology model of the minimal active domain of mouse ATGL (M1–L254) depicted as a cartoon. Residues 1–178 are in blue, and residues 179–254 are in gray. S47 and D166 comprising the active site are represented as green sticks. T101, C106, R109, N111, and S133 are colored in orange, A60, N68, I69, T93, C97, and T146 are colored in magenta. TEXT PRINTED IN THE PICTURE: (b) NG-497: IC50 [μM] (human): 1.3±0.1; IC50 [μM] (c1): 1.3±0.1 | (b) Ai: IC50 [μM] (human): n.det.; IC50 [μM] (c1): n.det. | (c) NG-497: IC50 [μM] (mouse): n.det.; IC50 [μM] (c2): n.det. | (c) Ai: IC50 [μM] (mouse): 2.5±0.3; IC50 [μM] (c2): 2.4±0.1 […]
The region between aa 60 and 146 of human and mouse ATGL comprises 12 nonidentical aa. We generated 3D homology models for the minimal active domain of mouse ATGL to obtain more detailed insight into the topology of the relevant region (Figure 5d). Based on this model, aa T101, C106, R109, N111, and S133 locate at peripheral (loop) regions (indicated in orange, Figure 5d). […] For all other nonidentical aa (indicated in magenta, Figure 5d), we generated variants with single aa substitutions. The humanized variants A60V, N68K, T93I, and C97F were inactivated by Ai but not NG-497 (Figure 5a).
(§2) Experimental details, materials, and methods
(§3) Expression of recombinant ATGL constructs and preparation of cell lysates. Expi293 cells were cultivated in Expi293 Expression Medium (GIBCO, Thermo Fisher Scientific, Waltham, USA) at standard conditions (37°C, 5% CO2, 95% humidified atmosphere, 125 rpm). DNA constructs containing ATGL from different species and chimeric ATGL variants in pcDNA3.1(+)myc-His C Vector were obtained from BioCat GmbH (Heidelberg, Germany). Cells were transfected with ExpiFectamine293 Transfection Kit (GIBCO) in Opti-Mem reduced serum medium (GIBCO) according to the manufacturer’s instructions. After 48 h, cells were harvested by centrifugation and washed three times with PBS. Cells were disrupted in buffer A (0.25 M sucrose, 1 mM EDTA, 1 mM dithiothreitol, 20µg/ml leupeptin, 2 µg/ml antipain, 1 µg/ml pepstatin, pH 7.0) by sonication (Virsonic 475, Virtis, Gardiner, USA). Nuclei and debris were removed by centrifugation at 1,000 g and 4°C for 10 min. Protein concentrations were determined using Bio-Rad protein assay (Bio-Rad 785, Bio-Rad Laboratories, Munich, Germany) using BSA as standard.
(§4) Expression and purification of mouse CGI-58. CGI-58 was expressed and purified as described 1. In brief, the coding sequence of mouse Cgi-58 was cloned into pHis-Sumo and co-transformed with the plasmid pTf16 expressing the chaperone Tig into E. coli BL21(DE3). Cells were cultured overnight at 37°C and 180 rpm in the presence of 40 µg/ml kanamycin and 34 µg/ml chloramphenicol. Thereafter, cells were transferred into fresh LB medium, grown until OD600 of 0.6, and expression was induced by the addition of 0.5 mM IPTG. After overnight incubation at 30°C, cells were harvested at 4,500 x g and 4°C for 20 min, […]

[1] = target: T2, Variant c4 (aa 1–69 of human ATGL) (Homo sapiens, UniProt Q96AD5, F97C/G146T/H109R/I93T/N133S/S106C/S111N/S158T/S96G/V101T); experiment: TAG hydrolase assay, chimeric ATGL variants; format: biochemical, human and mouse; details: variant c4, NG-497 (10 μM) or Atglistatin (10 μM)
T2 construct: host or cells: Expi293 cells, cell lysate
T2 sequence (Q96AD5 1-288 I93T/S96G/F97C/V101T/S106C/H109R/S111N/N133S/G146T/S158T): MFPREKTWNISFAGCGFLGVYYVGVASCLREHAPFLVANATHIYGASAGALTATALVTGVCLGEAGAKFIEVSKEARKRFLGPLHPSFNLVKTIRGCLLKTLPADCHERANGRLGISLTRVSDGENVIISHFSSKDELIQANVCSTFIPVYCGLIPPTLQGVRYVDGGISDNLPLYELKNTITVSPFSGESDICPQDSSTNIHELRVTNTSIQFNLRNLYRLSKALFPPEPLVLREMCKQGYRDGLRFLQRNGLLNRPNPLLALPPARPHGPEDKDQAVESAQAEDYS
Protocol: as §1
(§5) We next generated variants by further stepwise humanization of c2. Variant c3 containing aa 1–23 of human ATGL was inhibited by Ai but not NG-497 (Figure 5a). […] Finally, variants of mouse ATGL containing aa 1–146 (c7) and 60–146 (c8) of human ATGL were inhibited by NG-497 but not Ai (Figure 5a).
as §2, §3
as §4, with “min, washed in 1x PBS, and resuspended in lysis buffer (20 mM Tris/HCl pH 7.8, 300 mM NaCl, 30 mM imidazole, 0.1% IGEPAL CA-630, 3.5 mM β-mercaptoethanol, 20 µg/ml leupeptin, 2 µg/ml antipain and 1 µg/ml pepstatin). Cells were incubated with 1” for “min,”

[2] = target: T3, c5 (aa 1–111 of human ATGL) (Homo sapiens, UniProt Q96AD5, G146T/N133S/S158T); experiment: TAG hydrolase assay, chimeric ATGL variants; format: biochemical, human and mouse; details: variant c5, NG-497 (10 μM) or Atglistatin (10 μM)
T3 construct: host or cells: Expi293 cells, cell lysate
T3 sequence (Q96AD5 1-288 N133S/G146T/S158T): as the sequence (Q96AD5 1-288 I93T/S96G/F97C/V101T/S106C/H109R/S111N/N133S/G146T/S158T) above, with T93I, G96S, C97F, T101V, C106S, R109H, N111S counted along it
Protocol: as §1, §5, §2, §3
as §4, with “min, washed in 1x PBS, and resuspended in lysis buffer (20 mM Tris/HCl pH 7.8, 300 mM NaCl, 30 mM imidazole, 0.1% IGEPAL CA-630, 3.5 mM β-mercaptoethanol, 20 µg/ml leupeptin, 2 µg/ml antipain and 1 µg/ml pepstatin). Cells were incubated with 1” for “min,”

[3] = target: T4, c6 (aa 1–133 of human ATGL) (Homo sapiens, UniProt Q96AD5, G146T/S158T); experiment: TAG hydrolase assay, chimeric ATGL variants; format: biochemical, human and mouse; details: variant c6, NG-497 (10 μM) or Atglistatin (10 μM)
T4 construct: host or cells: Expi293 cells, cell lysate
T4 sequence (Q96AD5 1-288 G146T/S158T): as the sequence (Q96AD5 1-288 I93T/S96G/F97C/V101T/S106C/H109R/S111N/N133S/G146T/S158T) above, with T93I, G96S, C97F, T101V, C106S, R109H, N111S, S133N counted along it
Protocol: as §1, §5, §2, §3
as §4, with “min, washed in 1x PBS, and resuspended in lysis buffer (20 mM Tris/HCl pH 7.8, 300 mM NaCl, 30 mM imidazole, 0.1% IGEPAL CA-630, 3.5 mM β-mercaptoethanol, 20 µg/ml leupeptin, 2 µg/ml antipain and 1 µg/ml pepstatin). Cells were incubated with 1” for “min,”

Measured: inhibition of TAG hydrolase activity

T1 sequence (Q8BJ56 whole entry T146G): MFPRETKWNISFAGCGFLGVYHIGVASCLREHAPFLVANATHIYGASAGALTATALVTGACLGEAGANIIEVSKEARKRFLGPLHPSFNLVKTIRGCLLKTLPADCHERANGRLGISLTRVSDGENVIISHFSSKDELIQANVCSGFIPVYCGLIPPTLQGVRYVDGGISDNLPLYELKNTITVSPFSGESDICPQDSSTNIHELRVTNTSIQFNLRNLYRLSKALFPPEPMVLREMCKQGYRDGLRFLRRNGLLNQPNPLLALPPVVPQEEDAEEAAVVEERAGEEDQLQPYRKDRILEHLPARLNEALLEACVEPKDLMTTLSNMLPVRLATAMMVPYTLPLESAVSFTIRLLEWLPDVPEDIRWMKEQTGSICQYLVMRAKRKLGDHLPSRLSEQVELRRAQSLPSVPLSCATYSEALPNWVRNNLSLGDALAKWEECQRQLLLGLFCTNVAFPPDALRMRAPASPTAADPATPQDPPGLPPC

CN(C)C(=O)Nc1cccc(-c2ccc(N(C)C)cc2)c1 [Atglistatin, reference compound]
neither inhibited: all assays above

CCOc1ccc(-c2cc(OC)cc(C(=O)OC(C)C)n2)cc1 [NG-497]
neither inhibited: all assays above
